Where two headings read alike, the source gives them in different places. Blank lines part the entries; values can stand above or below the compound they belong to.
Molecular target: T1, thromboxane A2 receptors (TPα) of human platelets (Homo sapiens, UniProt P21731)
T1 construct: endogenous in cells; host or cells: human platelets
T1 sequence (P21731 1-343): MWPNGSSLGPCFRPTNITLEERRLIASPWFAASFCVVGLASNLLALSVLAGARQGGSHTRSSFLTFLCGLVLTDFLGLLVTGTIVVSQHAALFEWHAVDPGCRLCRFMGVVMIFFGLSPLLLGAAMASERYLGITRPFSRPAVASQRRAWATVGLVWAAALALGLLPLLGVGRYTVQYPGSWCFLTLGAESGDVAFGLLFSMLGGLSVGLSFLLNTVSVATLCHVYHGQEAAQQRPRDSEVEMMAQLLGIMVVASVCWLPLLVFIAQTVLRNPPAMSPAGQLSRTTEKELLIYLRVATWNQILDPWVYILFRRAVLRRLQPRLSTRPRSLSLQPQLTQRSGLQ
Assay: Binding test: displacement of [3H]SQ-29.548 from human platelet thromboxane A2 receptors
Details: for inhibition at 1 µM: read-out: Affinity: percent of [3H]SQ-29.548 specifically substituted by the examined compound, compound 10^-6 M; for inhibition at 0.1 µM: read-out: Affinity: percent of [3H]SQ-29.548 specifically substituted by the examined compound, compound 10^-7 M
Excerpt: To operate a first selection, the capacity of these compounds to displace in a specific way a tritium ligand, the [^3H]
Cozzi P., Giordani A., Menichincheri M., Pillan A., Pinciroli V., Rossi A., Tonani R., Volpi D., Tamburin M., Ferrario R., Fusar D., Salvati P.,—Agents combining thromboxane receptor antagonism with thromboxane synthase inhibition:[[[2-(1H-imidazol-1-yl)ethylidene]amino]oxy]alkanoic acids.—J. Med. Chem., 1994, 37, 3588-3604.

[1] = read-out: IC 50: concentration required for replacing 50% of [3H]SQ-29.548 bound to receptors TPα

Affinity: percent of [3H]SQ-29.548 specifically substituted by the examined compound, 10^-6M: 93.6%
Affinity: percent of [3H]SQ-29.548 specifically substituted by the examined compound, 10^-7M: 68.0%
SMILES: CC(C)NC(=O)NS(=O)(=O)c1cc([N+](=O)[O-])ccc1NC1CCCCCC1 [Compound 1]

Affinity: percent of [3H]SQ-29.548 specifically substituted by the examined compound, 10^-6M: 42.9%
SMILES: CC(C)NC(=NC#N)NS(=O)(=O)c1cc([N+](=O)[O-])ccc1NC1CCCCC1 [Compound 7]

Affinity: percent of [3H]SQ-29.548 specifically substituted by the examined compound, 10^-6M: 95.7%
Affinity: percent of [3H]SQ-29.548 specifically substituted by the examined compound, 10^-7M: 76.0%
SMILES: Cc1ccc(Nc2ccc([N+](=O)[O-])cc2S(=O)(=O)NC(=O)NC(C)C)cc1 [Compound 50]

IC50: 43.9 nM
inhibition at 1 µM: 92.3%
SMILES: CCCCCNC(=O)NS(=O)(=O)c1cc([N+](=O)[O-])ccc1Nc1cccc(C)c1 [Compound 96]

Affinity: percent of [3H]SQ-29.548 specifically substituted by the examined compound, 10^-6M: 100%
Affinity: percent of [3H]SQ-29.548 specifically substituted by the examined compound, 10^-7M: 46.1%
SMILES: O=[N+]([O-])c1ccc(NC2CCCCC2)c(S(=O)(=O)NC(=S)NC2CCCCC2)c1 [Compound 16]

Affinity: percent of [3H]SQ-29.548 specifically substituted by the examined compound, 10^-6M: 75.9%
SMILES: O=[N+]([O-])c1ccc(NC2CCCCCCC2)c(S(=O)(=O)NC(=S)NC2CCCCC2)c1 [Compound 41]

Affinity: percent of [3H]SQ-29.548 specifically substituted by the examined compound, 10^-6M: 63.8%
SMILES: CC(C)NC(=O)NS(=O)(=O)c1cc(Cl)ccc1NC1C=CCCC1 (stereo not shown) [Compound 70]

Affinity: percent of [3H]SQ-29.548 specifically substituted by the examined compound, 10^-6M: 72.1%
SMILES: N#CN=C(NC1CCCCC1)NS(=O)(=O)c1cc([N+](=O)[O-])ccc1NC1CCCCC1 [Compound 5]

inhibition at 1 µM: 98.6%
inhibition at 0.1 µM: 94.8%
IC50 [1]: 1.1 nM
SMILES: CCCCCNC(=O)NS(=O)(=O)c1cc([N+](=O)[O-])ccc1NC1CCCCC1 [Compound 61]

Affinity: percent of [3H]SQ-29.548 specifically substituted by the examined compound, 10^-6M: 29.8%
SMILES: Cc1cccc(Nc2ccc([N+](=O)[O-])cc2S(=O)(=O)NC(=NC#N)NC2CCCCC2)c1 [Compound 6]

Affinity: percent of [3H]SQ-29.548 specifically substituted by the examined compound, 10^-6M: 15.4%
SMILES: CC(C)NC(=NC#N)NS(=O)(=O)c1cc([N+](=O)[O-])ccc1NC1CCCCCCC1 [Compound 9]

IC50: 1.83 nM
inhibition at 1 µM: 98.4%
inhibition at 0.1 µM: 94.3%
SMILES: Cc1cc(C)c(Nc2ccc([N+](=O)[O-])cc2S(=O)(=O)NC(=O)NC(C)C)c(C)c1 [Compound 86]

Affinity: percent of [3H]SQ-29.548 specifically substituted by the examined compound, 10^-6M: 7.5%
SMILES: CC(C)(C)NC(=O)NS(=O)(=O)c1cc([N+](=O)[O-])ccc1N1CCOCC1 [Compound 63]

IC50: 4.2 nM
inhibition at 1 µM: 95.3%
inhibition at 0.1 µM: 71.6%
SMILES: C[C@H](Nc1ccc([N+](=O)[O-])cc1S(=O)(=O)NC(=O)NC(C)(C)C)c1ccccc1 [Compound 78]

Affinity: percent of [3H]SQ-29.548 specifically substituted by the examined compound, 10^-6M: 3.7%
SMILES: CC(C)NC(=O)NS(=O)(=O)c1cc([N+](=O)[O-])ccc1N1CCOCC1 [Compound 62]

Affinity: percent of [3H]SQ-29.548 specifically substituted by the examined compound, 10^-6M: 86.7%
Affinity: percent of [3H]SQ-29.548 specifically substituted by the examined compound, 10^-7M: 46.0%
SMILES: C=CCNC(=O)NS(=O)(=O)c1cc([N+](=O)[O-])ccc1NC1CCCCC1 [Compound 32]

Affinity: percent of [3H]SQ-29.548 specifically substituted by the examined compound, 10^-6M: 67.0%
SMILES: CCCCCCNc1ccc([N+](=O)[O-])cc1S(=O)(=O)NC(=O)NC(C)C [Compound 57]

Affinity: percent of [3H]SQ-29.548 specifically substituted by the examined compound, 10^-6M: 80.5%
Affinity: percent of [3H]SQ-29.548 specifically substituted by the examined compound, 10^-7M: 42.2%
SMILES: C=CCNC(=O)NS(=O)(=O)c1cc([N+](=O)[O-])ccc1Nc1ccccc1 [Compound 31]

Affinity: percent of [3H]SQ-29.548 specifically substituted by the examined compound, 10^-6M: 33.0%
SMILES: CC(C)NC(=NC#N)NS(=O)(=O)c1cc([N+](=O)[O-])ccc1NC1CCCCCC1 [Compound 8]

Affinity: percent of [3H]SQ-29.548 specifically substituted by the examined compound, 10^-6M: 90.9%
SMILES: CC(C)(C)NC(=NC#N)NS(=O)(=O)c1cc([N+](=O)[O-])ccc1NC1CCCCC1 [Compound 74]

Affinity: percent of [3H]SQ-29.548 specifically substituted by the examined compound, 10^-6M: 0.0%
SMILES: CC(C)NC(=O)NS(=O)(=O)c1cc([N+](=O)[O-])ccc1NC(C)(C)C [Compound 56]

Affinity: percent of [3H]SQ-29.548 specifically substituted by the examined compound, 10^-6M: 99.0%
Affinity: percent of [3H]SQ-29.548 specifically substituted by the examined compound, 10^-7M: 93.9%
IC50 [1]: 2.8 nM
SMILES: Cc1ccccc1Nc1ccc([N+](=O)[O-])cc1S(=O)(=O)NC(=O)NC(C)(C)C [Compound 52]

IC50: 2.4 nM
inhibition at 1 µM: 98.6%
inhibition at 0.1 µM: 97.9%
SMILES: C[C@@H](Nc1ccc([N+](=O)[O-])cc1S(=O)(=O)NC(=O)NC(C)(C)C)c1ccccc1 [Compound 80]

Affinity: percent of [3H]SQ-29.548 specifically substituted by the examined compound, 10^-6M: 46.6%
SMILES: O=C(Nc1ccccc1)NS(=O)(=O)c1cc([N+](=O)[O-])ccc1NC1CCCCC1 [Compound 65]
